Measurements from US20110136916A1, “6-SHOGAOL FOR USING IN A METHOD FOR THE TREATMENT OF LEUKEMIA” (China Pharmaceutical University, priority 2009, published 2011).

Assays:
[1] = system: human leukemia Jurkat cells; assay: Annexin V/PI flow cytometry apoptosis of Jurkat cells; format: cell-based; settings: for Apoptotic rate: Jurkat
Method: Jurkat cells in logarithmic growth phase of growth were collected (3−10×10^5) and inoculated to a 24-well plate in 3×10^5 cells/mL/well, then after incubation for 24 hours, different concentrations of 6-shogaol (0, 1, 2.5, 5, 10 and 15 μM) were added for treatment for 24 hours and also 6-shogaol at a concentration of 15 μM were added for treatment at different durations (0, 2, 4, 6, 12 and 24 h). After reacting with 6-shogaol under different conditions, the cells were collected into 1 mL centrifuge tubes and then centrifuged at 500 rpm (or 100×g) for 5 minutes, the supernatant was removed and the cells were rinsed with 0.01 M PBS at 500 rpm (or 100×g) for 5 minutes twice, and the flow cytometry analysis (Becton Dickinson FACScan Flow Cytometer) was carried out after adding binding solution and staining according to the directions for use of Annexin V/PI double staining kit (BD Company). The FACS data were analyzed by professional operators of the flow cytometer by using FLOWJO software (Tree Star, Calif.) software, the apoptotic rate was counted by the sum of early apoptosis and late apoptosis, and the results were shown in Table 2 and Table 3.

[2] = system: peripheral blood lymphocytes (PBMC) of clinical leukemia patients; assay: Annexin V/PI apoptosis of PBMC from leukemia patients; format: cell-based, human; settings: 24 hours
Method: After application by the research group and approval by the Ethics Committee of the hospital, the leukemia patients (healthy volunteers) signed the informed consent and their fresh blood was collected and transferred into heparin anticoagulation tubes, then the same volume of serum free D-Hank buffer (preheated at 37° C.) was added to re-suspend the cells, and the suspension was added to the pre-laid human lymphocyte separating medium (preheated at 37° C.), and the volume ratio between the lymphocyte separating medium and the cell suspension should be no lower than 1:1, and the mixture was centrifuged at room temperature (20-30° C.) at 500×g by a horizontal centrifuge for 30 minutes. The upper layer plasma was removed and the white fog layer in the middle was carefully collected and transferred to 5 mL (or 1-2 times of the volume) PBS (or serum free buffer for cell culture), then it was centrifuged at 200×g or 1000 rpm for 10 minutes at room temperature (20-30° C.), and the supernatant was removed, and the obtained precipitation was the peripheral blood lymphocytes (PBMC). The cells were rinsed twice according to the above-mentioned operations at 500×g by the horizontal centrifuge for 10 minutes at room temperature (20-30° C.), subsequently the cells were collected and their cell vitality was detected by using dye exclusion method for living cells (Trypan blue).
The cells were added to a 24-well plate in 3×10^5 cells/mL/well and different concentrations of 6-shogaol (10 and 20 μM) for treatment for 24 hours after they were incubated for 24 hours. Negative control group (the group without drug) and the treatment group with 6-shogaol were set up for PBMCs from different individuals respectively. After the cells were treated with 6-shogaol for 24 hours, they were transferred into 10 mL glass centrifuge tubes and centrifuged at 500 rpm (or 100×g) for 5 minutes to remove the supernatant. The cells were then rinsed with 0.01 M PBS at 500 rpm (or 100×g) for 5 minutes twice. Subsequently, after adding binding solution and staining according to the directions for use of Annexin V/PI double staining kit (BD Company), flow cytometry analysis (Becton Dickinson FACScan Flow Cytometer) was carried out. The FACS data were analyzed by professional operators of the flow cytometer by using FLOWJO software (Tree Star, Calif.) software, the apoptotic rate was counted by the sum of early apoptosis and late apoptosis, and the results were shown in Table 4 and Table 5.

[3] = system: human ovarian cancer SK-OV-3 cells; settings: cited from earlier work

With `CCCCC/C=C/C(=O)CCc1ccc(O)c(OC)c1` [6-shogaol] the Apoptotic rate ([1]; 1 μM, 24 hours, n = 3) was 11.2 ± 0.9bd %, the Apoptotic rate ([1]; 2.5 μM, 24 hours, n = 3) was 17.8 ± 1.4bd % and the Apoptotic rate ([1]; 5 μM, 24 hours, n = 3) was 25.9 ± 3.2bc %. The Apoptotic rate ([1]; 10 μM, 24 hours, n = 3) was 48.7 ± 3.1bd %, the Apoptotic rate ([1]; 15 μM, 2 hours, n = 3) was 7.7 ± 2.1% and the Apoptotic rate ([1]; 15 μM, 4 hours, n = 3) was 14.6 ± 2.5ac %. The Apoptotic rate ([1]; 15 μM, 6 hours, n = 3) was 28.5 ± 3.3bd %, the Apoptotic rate ([1]; 15 μM, 12 hours, n = 3) was 45.3 ± 2.6bd % and the Apoptotic rate ([1]; 15 μM, 24 hours, n = 3 (Table 2)) was 73.2 ± 2.8bd %. For the same compound, the Apoptotic rate ([1]; 15 μM, 24 hours, n = 3 (Table 3)) was 72.3 ± 2.4bd %, the “induction of apoptosis of Jurkat cells (t-test)” value ([1]; summary statement, concentration and time dependent) was “significantly induce the apoptosis” and the “induction of apoptosis of PBMC of leukemia patients (t-test)” value ([2]; 30 cases of leukemia patients, 10 and 20 μM) was “significantly induce the apoptosis”. The “Apoptotic rate of 10 μM 6-shogaol” value ([2]; PBMC of patient P1, 10 μM) was 38.5 ± 3.7a %, the “Apoptotic rate of 20 μM 6-shogaol” value ([2]; PBMC of patient P1, 20 μM) was 56.9 ± 2.2a % and the “Apoptotic rate of 10 μM 6-shogaol” value ([2]; PBMC of patient P2, 10 μM) was 27.6 ± 1.3a %. For the same compound, the “Apoptotic rate of 20 μM 6-shogaol” value ([2]; PBMC of patient P2, 20 μM) was 50.1 ± 5.4a %, the “Apoptotic rate of 10 μM 6-shogaol” value ([2]; PBMC of patient P3, 10 μM) was 47.9 ± 1.6a % and the “Apoptotic rate of 20 μM 6-shogaol” value ([2]; PBMC of patient P3, 20 μM) was 72.9 ± 3.1a %. For the same compound, the “Apoptotic rate of 10 μM 6-shogaol” value ([2]; PBMC of patient P4, 10 μM) was 35.7 ± 3.8a %, the “Apoptotic rate of 20 μM 6-shogaol” value ([2]; PBMC of patient P4, 20 μM) was 69.7 ± 1.6a % and the “Apoptotic rate of 10 μM 6-shogaol” value ([2]; PBMC of patient P5, 10 μM) was 40.5 ± 6.1a %. For the same compound, the “Apoptotic rate of 20 μM 6-shogaol” value ([2]; PBMC of patient P5, 20 μM) was 61.9 ± 4.2a %, the “Apoptotic rate of 10 μM 6-shogaol” value ([2]; PBMC of patient P6, 10 μM) was 29.3 ± 1.7a % and the “Apoptotic rate of 20 μM 6-shogaol” value ([2]; PBMC of patient P6, 20 μM) was 52.7 ± 2.3a %. For the same compound, the “Apoptotic rate of 10 μM 6-shogaol” value ([2]; PBMC of patient P7, 10 μM) was 44.6 ± 3.8a %, the “Apoptotic rate of 20 μM 6-shogaol” value ([2]; PBMC of patient P7, 20 μM) was 75.9 ± 1.7a % and the “Apoptotic rate of 10 μM 6-shogaol” value ([2]; PBMC of patient P8, 10 μM) was 31.3 ± 2.7a %. The “Apoptotic rate of 20 μM 6-shogaol” value ([2]; PBMC of patient P8, 20 μM) was 64.7 ± 2.4a %, the “Apoptotic rate of 10 μM 6-shogaol” value ([2]; PBMC of patient P9, 10 μM) was 27.5 ± 2.9a % and the “Apoptotic rate of 20 μM 6-shogaol” value ([2]; PBMC of patient P9, 20 μM) was 44.8 ± 3.9a %. The “Apoptotic rate of 10 μM 6-shogaol” value ([2]; PBMC of patient P10, 10 μM) was 42.4 ± 3.1a %, the “Apoptotic rate of 20 μM 6-shogaol” value ([2]; PBMC of patient P10, 20 μM) was 73.5 ± 3.7a % and the “Apoptotic rate of 10 μM 6-shogaol” value ([2]; PBMC of patient P11, 10 μM) was 29.7 ± 2.4a %. For the same compound, the “Apoptotic rate of 20 μM 6-shogaol” value ([2]; PBMC of patient P11, 20 μM) was 50.1 ± 3.3ac %, the “Apoptotic rate of 10 μM 6-shogaol” value ([2]; PBMC of patient P12, 10 μM) was 49.3 ± 4.1a % and the “Apoptotic rate of 20 μM 6-shogaol” value ([2]; PBMC of patient P12, 20 μM) was 80.8 ± 5.1ac %. For the same compound, the “Apoptotic rate of 10 μM 6-shogaol” value ([2]; PBMC of patient P13, 10 μM) was 55.9 ± 2.7a %, the “Apoptotic rate of 20 μM 6-shogaol” value ([2]; PBMC of patient P13, 20 μM) was 82.9 ± 2.5ac % and the “Apoptotic rate of 10 μM 6-shogaol” value ([2]; PBMC of patient P14, 10 μM) was 26.7 ± 1.9a %. For the same compound, the “Apoptotic rate of 20 μM 6-shogaol” value ([2]; PBMC of patient P14, 20 μM) was 39.7 ± 2.6ac %, the “Apoptotic rate of 10 μM 6-shogaol” value ([2]; PBMC of patient P15, 10 μM) was 34.5 ± 3.1a % and the “Apoptotic rate of 20 μM 6-shogaol” value ([2]; PBMC of patient P15, 20 μM) was 47.9 ± 4.2ab %. The “Apoptotic rate of 10 μM 6-shogaol” value ([2]; PBMC of patient P16, 10 μM) was 39.3 ± 2.3a %, the “Apoptotic rate of 20 μM 6-shogaol” value ([2]; PBMC of patient P16, 20 μM) was 46.7 ± 1.6ab % and the “Apoptotic rate of 10 μM 6-shogaol” value ([2]; PBMC of patient P17, 10 μM) was 44.6 ± 3.8a %. The “Apoptotic rate of 20 μM 6-shogaol” value ([2]; PBMC of patient P17, 20 μM) was 55.9 ± 1.7ab %, the “Apoptotic rate of 10 μM 6-shogaol” value ([2]; PBMC of patient P18, 10 μM) was 33.1 ± 3.7a % and the “Apoptotic rate of 20 μM 6-shogaol” value ([2]; PBMC of patient P18, 20 μM) was 54.7 ± 2.6ac %. The “Apoptotic rate of 10 μM 6-shogaol” value ([2]; PBMC of patient P19, 10 μM) was 37.9 ± 4.9a %, the “Apoptotic rate of 20 μM 6-shogaol” value ([2]; PBMC of patient P19, 20 μM) was 51.8 ± 7.9ac % and the “Apoptotic rate of 10 μM 6-shogaol” value ([2]; PBMC of patient P20, 10 μM) was 52.9 ± 2.7a %. The “Apoptotic rate of 20 μM 6-shogaol” value ([2]; PBMC of patient P20, 20 μM) was 63.6 ± 1.2ab %, the “Apoptotic rate of 10 μM 6-shogaol” value ([2]; PBMC of patient P21, 10 μM) was 31.5 ± 4.3a % and the “Apoptotic rate of 20 μM 6-shogaol” value ([2]; PBMC of patient P21, 20 μM) was 44.5 ± 2.4ab %. The “Apoptotic rate of 10 μM 6-shogaol” value ([2]; PBMC of patient P22, 10 μM) was 20.5 ± 3.1a %, the “Apoptotic rate of 20 μM 6-shogaol” value ([2]; PBMC of patient P22, 20 μM) was 38.5 ± 2.1ac % and the “Apoptotic rate of 10 μM 6-shogaol” value ([2]; PBMC of patient P23, 10 μM) was 36.2 ± 5.7a %. For the same compound, the “Apoptotic rate of 20 μM 6-shogaol” value ([2]; PBMC of patient P23, 20 μM) was 67.1 ± 3.7ac %, the “Apoptotic rate of 10 μM 6-shogaol” value ([2]; PBMC of patient P24, 10 μM) was 42.7 ± 2.4a % and the “Apoptotic rate of 20 μM 6-shogaol” value ([2]; PBMC of patient P24, 20 μM) was 58.7 ± 3.9ac %. For the same compound, the “Apoptotic rate of 10 μM 6-shogaol” value ([2]; PBMC of patient P25, 10 μM) was 47.8 ± 2.9a %, the “Apoptotic rate of 20 μM 6-shogaol” value ([2]; PBMC of patient P25, 20 μM) was 69.1 ± 3.3ac % and the “Apoptotic rate of 10 μM 6-shogaol” value ([2]; PBMC of patient P26, 10 μM) was 43.3 ± 4.9a %. The “Apoptotic rate of 20 μM 6-shogaol” value ([2]; PBMC of patient P26, 20 μM) was 56.9 ± 5.2ac %, the “Apoptotic rate of 10 μM 6-shogaol” value ([2]; PBMC of patient P27, 10 μM) was 30.9 ± 1.7a % and the “Apoptotic rate of 20 μM 6-shogaol” value ([2]; PBMC of patient P27, 20 μM) was 47.6 ± 3.6ab %. The “Apoptotic rate of 10 μM 6-shogaol” value ([2]; PBMC of patient P28, 10 μM) was 39.6 ± 2.2a %, the “Apoptotic rate of 20 μM 6-shogaol” value ([2]; PBMC of patient P28, 20 μM) was 56.3 ± 3.8ac % and the “Apoptotic rate of 10 μM 6-shogaol” value ([2]; PBMC of patient P29, 10 μM) was 33.7 ± 3.5a %. For the same compound, the “Apoptotic rate of 20 μM 6-shogaol” value ([2]; PBMC of patient P29, 20 μM) was 42.4 ± 2.9ab %, the “Apoptotic rate of 10 μM 6-shogaol” value ([2]; PBMC of patient P30, 10 μM) was 28.6 ± 2.9a % and the “Apoptotic rate of 20 μM 6-shogaol” value ([2]; PBMC of patient P30, 20 μM) was 51.9 ± 4.2ac %. For the same compound, the anti-tumor activities [3] was “certain anti-tumor activities”.
